Test results as given in patent publication US20080319181A1, “Method of Making an Artificial Nuclease for Anti-viral, Anti-bacterial Applications” (The Government of the United States of America, as …, priority 2004, published 2008).

Experiments:
Type in all cases: biochemical
[1] = test system: pBluescript plasmid DNA; experiment: Hydrolysis (nicking) of plasmid DNA, agarose gel; conditions: pH 7; 5 mM cobalt complex; 0.1M MOPS; 37° C., approximately 16 hours; NIH Image
Description: DNA was digested with cocycmba and cocycmmb at three pH conditions (FIG. 3). Hydrolysis of the phosophodiester bonds of the double stranded (ds) plasmid DNA should lead to a conversion from the covalently closed supercoiled form to the nicked form of the plasmid. […] Plasmid DNA digested with a nicking enzyme (lane 1 FIG. 3) confirms that the slower moving band observed in digests with the cobalt catalysts is the nicked form of the plasmid.
Digests run overnight at 37° C. for approximately 16 hours on a 1.5% agarose gel. Controls with no cobalt catalyst were always run in parallel. b) 5 mM cocycmmb and 1.19 μg (0.168 mM bp) pBluescript plasmid DNA in 0.1M MOPS buffer at pH 7, 8, and 10 run under identical conditions. 1=Nickase+DNA, 2=DNA. 3=Cobalt complex+DNA at pH 7.4=pH 7 control, 5=Cobalt complex+DNA at pH 8, 6=pH 8 control, 7=Cobalt complex+DNA at pH 10, 8=pH 10 control Nickase reactions were performed at pH 7 using a 4 hour, 37° C. incubation of 1.18 μg pBluescript plasmid DNA.

[2] = Hydrolysis of BNPP by cobalt cyclen complexes (2nd order rate constants); conditions: 50° C., activation using sodium hydroxide
Description: The hydrolysis of BNPP by both Cocyc and 2 at 50° C., following activation using sodium hydroxide, has been measured (see Table 1). The second-order rate constants at pH 8.2 for both cyclen and 2 were similar at 14 and 12 M^−1 min^−1, respectively. The rate increased at pH 7.3 to a value of 19 M^−1 min^−1 for cyclen as compared to the published value of 2.8 M^−1 min^−1 at pH 7 (Chin, J.; Banaszczyk, M.; Jubian, V.; Zou, X. J. Am. Chem. Soc. 1989, 111, 186-190, the entire contents of which is incorporated herein by reference). The difference between the published value and ours can be attributed to different experimental conditions, such as buffer. pH, and the ratio of catalyst to substrate.
The much lower hydrolysis rate shown at pH 7.3 for Cocycmba is surprising. In order to determine whether the differences observed were mainly due to the carboxylic acid or to the presence of the benzene ring, the kinetics of 3 were measured at pH 7.3 and found to be 14 M^−1 min^−1, which is much closer to the Cocyc rate. Methylation of the benzoic acid takes away both the negative charge and an ability to effectively hydrogen bond. Therefore the results imply that the behavior of 2 can be mostly ascribed to the presence of the additional charge and the potential for hydrogen bonding. For example, the acid dissociation constants of cyclen of 5.6 and 8.0 mean that between pH 8.2 and 7.3 complexes 1 and 2 should convert from predominantly the dihydroxo to the aquo-hydroxo form (see FIG. 2). Since the benzoic acid is in the benzoate form (pKa 4.2), the increasing net positive charge at pH 7.3 of the coordination site may allow the benzoate to approach closer to Co(III) and interfere with the hydrolysis of BNPP.

[3] = test system: luciferase mRNA; experiment: Hydrolysis of RNA, denaturing agarose gel electrophoresis; conditions: 1 to 5 mM; 24 h at 25° C. in HBS (FIG. 5)
Description: The direct interaction of Co(III)-cycmmb with luciferase mRNA was analyzed by denaturing agarose gel electrophoresis. mRNA template (2 μg at a final concentration of 0.4 mg/mL) was incubated with varying concentrations (1 to 5 mM) of activated Co(III)-cycmmb for 24 h at 25° C. in 5 μL of HBS. Following the incubation, the reactions were analyzed by electrophoresis on a 2% denaturing agarose gel run for 4 h at 40 V. The gel was stained with RiboGreen (Molecular Probes), visualized by UV illumination, and images were quantified using Scion Image using the control incubation (no Co(III)-cycmmb) as a standard (see FIG. 5).

[4] = test system: Luciferase control-RNA; experiment: Western blot analysis of effect on protein translation (Rabbit Reticulocyte Lysate)
Description: Luciferase control-RNA (at a final concentration of 0.4 ug/mL) was incubated with increasing concentrations of Cocycmmb for 24 h in 1× HBS buffer (pH 7.4) for 24 h. After the incubation period, the RNA template was translated into luciferase protein using the Rabbit Reticulocyte Lysate translation system (Promega) according to the manufacturer's instructions. After translation, the reaction was analyzed by reducing SDS-PAGE and western blotting to monitor the presence of the 60 kDa luciferase protein product. An aliquot (3 uL) of the translation reaction was run on a 10% NuPAGE Bis-Tris polyacrylamide gel under reducing conditions and transferred to a solid support membrane (PVDF). The membrane was blocked for 1 h in TBS-T (TBS containing 0.05% Tween) and subsequently incubated for 1 h with a 1:2500 dilution of a streptavidin-alkaline phosphatase conjugate. Detection was achieved by exposing the membrane to Western Blue substrate for alkaline phosphatase.
RNA incubations were done as described above except that the Cocycmmb concentration was held constant at 5 mM (and, more recently, down to 0.05 mM) and incubated for varying amounts of time that spanned 24 h. SDS-PAGE and Western blotting were done as described above.

| Compound | nicked product [1] | 2nd Order Rate Constants, hydrolysis of BNPP ([2]; pH 7.3) | 2nd Order Rate Constants, hydrolysis of BNPP ([2]; pH 8.2) | hydrolysis of RNA [3] | inhibition of protein production ([4]; 0.25 mM, 10 minutes incubation time) | luciferase protein band in the Western blot ([4]; as a function of Cocycmmb concentration and of time of contact with the RNA (FIG. 4)) |
| --- | --- | --- | --- | --- | --- | --- |
| COC(=O)c1ccc(CN2CCNCCNCCNCC2)cc1.COS(=O)(=O)[O-].[Cl-].[Cl-].[Co+3] [Cocycmmb, Dichloro{methyl 4-[(1,4,7,10-tetraazacyclododec-1-yl)methyl]-benzoate}cobalt (III) methylsulfate] | 43% | 0.233 M⁻¹ s⁻¹ | 0.183 M⁻¹ s⁻¹ | hydrolyze RNA | significant inhibition of protein production | absence of the protein band |
| dichloro(4-[1,4,7,10-tetraazacyclotetradec-1-yl]methylbennzoic acid)cobalt(III) chloride [Cocycmba] | 25% | 0.045 M⁻¹ s⁻¹ | 0.2 M⁻¹ s⁻¹ | – | – | – |
